Measured values reported in patent publication US7928233B2, “Spiroindolinone pyridine derivatives” (Hoffmann-La Roche Inc., priority 2009, dated 2011).

Biological target: interaction between p53 and MDM2 proteins (recombinant GST-tagged MDM2 / p53 peptide) (Homo sapiens, UniProt Q00987)
Assay: HTRF assay of inhibition of p53-MDM2 interaction
Assay type: binding
Conditions: 0.02% BSA; HTRF GST-MDM2 / biotinylated p53 peptide
Description: The ability of the compounds to inhibit the interaction between p53 and MDM2 proteins was measured by an HTRF (homogeneous time-resolved fluorescence) assay in which recombinant GST-tagged MDM2 binds to a peptide that resembles the MDM2-interacting region of p53 (Lane et al.). Binding of GST-MDM2 protein and p53-peptide (biotinylated on its N-terminal end) is registered by the FRET (fluorescence resonance energy transfer) between Europium (Eu)-labeled anti-GST antibody and streptavidin-conjugated Allophycocyanin (APC).
Test is performed in black flat-bottom 384-well plates (Costar) in a total volume of 40 uL containing: 90 nM biotinylate peptide, 160 ng/ml GST-MDM2, 20 nM streptavidin-APC (PerkinElmerWallac), 2 nM Eu-labeled anti-GST-antibody (PerkinElmerWallac), 0.2% bovine serum albumin (BSA), 1 mM dithiothreitol (DTT) and 20 mM Tris-borate saline (TBS) buffer as follows: Add 10 uL of GST-MDM2 (640 ng/ml working solution) in reaction buffer to each well. Add 10 uL diluted compounds (1:5 dilution in reaction buffer) to each well, mix by shaking Add 20 uL biotinylated p53 peptide (180 nM working solution) in reaction buffer to each well and mix on shaker. Incubate at 37° C. for 1 h. Add 20 uL streptavidin-APC and Eu-anti-GST antibody mixture (6 nM Eu-anti-GST and 60 nM streptavidin-APC working solution) in TBS buffer with 0.2% BSA, shake at room temperature for 30 minutes and read using a TRF-capable plate reader at 665 and 615 nm (Victor 5, Perkin ElmerWallac). If not specified, the reagents were purchased from Sigma Chemical Co.

Sequence of interaction between p53 and MDM2 proteins (recombinant GST-tagged MDM2 / p53 peptide) (Q00987 whole entry): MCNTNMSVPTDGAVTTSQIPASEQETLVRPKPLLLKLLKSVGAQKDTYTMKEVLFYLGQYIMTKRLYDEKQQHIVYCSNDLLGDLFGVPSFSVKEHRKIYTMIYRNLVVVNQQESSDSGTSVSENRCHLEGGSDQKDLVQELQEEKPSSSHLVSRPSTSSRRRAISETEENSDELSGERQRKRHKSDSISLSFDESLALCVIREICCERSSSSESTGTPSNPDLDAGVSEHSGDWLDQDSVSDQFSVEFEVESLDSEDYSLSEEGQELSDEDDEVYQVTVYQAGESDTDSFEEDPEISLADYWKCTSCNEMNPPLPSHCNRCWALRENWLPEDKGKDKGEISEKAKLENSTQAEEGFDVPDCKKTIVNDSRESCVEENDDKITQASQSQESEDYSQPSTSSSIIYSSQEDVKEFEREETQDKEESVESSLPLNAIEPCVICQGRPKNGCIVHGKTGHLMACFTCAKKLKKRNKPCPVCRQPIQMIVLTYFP

Q: How did the IC50 turn out when `Cc1ccc(Cl)cc1[C@@H]1NC(=O)C[C@H](c2cc(Cl)cnc2OC(C)(C)C(=O)O)[C@@]12C(=O)Nc1cc(Cl)ccc12` [Example 15, chiral (2′S, 3S, 4′R)-6-chloro-4′-[5-chloro-2-(1-hydroxycarbonyl-1-methyl-ethoxy)-pyridin-3-yl]-2′-(5-chloro-2-methyl-phenyl) spiro[3H-indole-3,3′-piperidine]-2,6′(1H)-dione] was run?
A: 56 nM

Q: `Cc1ccc(F)cc1[C@@H]1NC(=O)C[C@H](c2cc(Cl)cnc2OC(C)(C)C(=O)O)[C@@]12C(=O)Nc1cc(Cl)ccc12` [Example 9, chiral (2′S, 3S, 4′R)-6-chloro-4′-[5-chloro-2-(1-hydroxycarbonyl-1-methyl-ethoxy)-pyridin-3-yl]-2′-(5-fluoro-2-methyl-phenyl) spiro[3H-indole-3,3′-piperidine]-2,6′(1H)-dione] was tested. Which IC50 did it give?
A: 108 nM

Q: Which IC50 does the source give for `Cc1ccc(F)cc1[C@@H]1NC(=O)C[C@H](c2cc(Cl)cnc2OC(C)(C)C(=O)NS(C)(=O)=O)[C@@]12C(=O)Nc1cc(Cl)ccc12` [Example 11, chiral (2′S, 3S, 4′R)-4′-[5-chloro-2-(2-methanesulfonylamino-1,1-methyl-2-oxo-ethoxy)-pyridin-3-yl]-6-chloro-2′-(5-fluoro-2-methyl-phenyl) spiro[3H-indole-3,3′-piperidine]-2,6′(1H)-dione] here?
A: 135 nM

Q: With `Cc1ccc(F)cc1[C@@H]1NC(=O)C[C@H](c2cc(Cl)cnc2OC(C)(C)C(=O)O)[C@@]12C(=O)Nc1cc(Cl)ccc12` (racemic) [Example 8, racemic (2′S, 3S, 4′R)-6-chloro-4′-[5-chloro-2-(1-hydroxycarbonyl-1-methyl-ethoxy)-pyridin-3-yl]-2′-(5-fluoro-2-methyl-phenyl) spiro[3H-indole-3,3′-piperidine]-2,6′(1H)-dione] as the compound, how does the IC50 read?
A: 145 nM
